System: TNFα
Assay: In vitro assay: TNFα ELISA of supernatants of LPS-stimulated human PBMC
Format: cell-based
Conditions: Homo sapiens, PBMC, human PBMC pretreated with drug 60 min, stimulated with LPS (E. coli O55:B5) 100 ng/mL, overnight culture, TNFα in supernatant by ELISA; read-out: 50% Inhibition of TNFα level (IC50)
Procedure: Enzyme-linked immunosorbent assays (ELISA) for TNFα can be performed in a conventional manner (Blood, 75, 40-47 (1990)). Human PBMC are isolated from heparinized venous blood obtained from healthy volunteers by Ficoll-Hypaque density centrifugation. The cells are cultured in RPMI1640 medium supplemented with 5% heat-inactivated fetal calf serum and antibiotics. PBMC (5×10E5 cells/mL) in 0.2 mL aliquot are pretreated with drugs in DMSO for 60 min at 37° C. in 96 well round-bottomed tissue culture plates. Thereafter, PBMC in the presence or absence of compound are stimulated with 1 mg/mL LPS from E. coli O55:B5 at a final concentration of 100 ng/mL. After overnight culture, the supernatants are harvested and assayed immediately for TNFα levels from each well. The concentration of TNFα in the supernatant is determined by human TNFα ELISA Kit according to the manufacture's directions.
Active compounds are characterized by the concentration of the compound that caused 50% inhibition of TNFα level (IC50).

SMILES	IC50 [µM]
Cc1c(Cc2ccccc2)c(=O)oc2cc(Oc3ncccn3)ccc12 [Example 15, 2-oxo-2H-3-benzyl-4-methyl-7-(pyrimidin-2-yloxyl)-1-benzopyrane]	9.4
CN(C)C(=O)Oc1ccc2c(CCO)c(Cc3ccccc3)c(=O)oc2c1 [Example 4, dimethyl carbamic acid 2-oxo-2H-3-benzyl-4-(2-hydroxylethyl)-1-benzopyran-7-yl ester]	2.1
Cc1c(Cc2ccccc2)c(=O)oc2cc(OC(=O)N(C)C)cc(F)c12 [Example 10, dimethyl carbamic acid 2-oxo-2H-3-benzyl-4-methyl-5-fluoro-1-benzopyran-7-yl ester]	< 0.6
CC(=O)Nc1cccc(Cc2c(C)c3cc(Cl)c(OC(=O)N(C)C)cc3oc2=O)c1 [Example 12, dimethyl carbamic acid 2-oxo-2H-3-(m-acetylamidobenzyl)-4-methyl-6-chloro1-benzopyran-7-yl ester]	< 0.6
CCOC(=O)CC(=O)Nc1cccc(Cc2c(C)c3ccc(Oc4ncccn4)cc3oc2=O)c1 [Example 19, 2-oxo-2H-3-(m-ethoxycarbonyl-acetylaminobenzyl)-4-methyl-7-(pyrimidin-2-yloxyl)-1-benzopyrane]	< 0.6
Cc1c(Cc2ccccc2)c(=O)oc2cc(Oc3nccs3)ccc12 [Example 21, 2-oxo-3-benzyl-4-methyl-7-(thiazol-2-yloxyl)-2H-1-benzopyrane]	9.1
Cc1c(Cc2ccccc2)c(=O)oc2cc(OC(=O)N(C)C)c(Cl)cc12 [Example 2, dimethyl carbamic acid 2-oxo-2H-3-benzyl-4-methyl-6-chloro-1-benzopyran-7-yl ester]	0.09
C=Cc1ccc2c(C)c(Cc3ccccc3)c(=O)oc2c1 [Example 23, 2-oxo-3-benzyl-4-methyl-7-vinyl-2H-1-benzopyrane]	10.3
Cc1c(Cc2ccccc2)c(=O)oc2cc(OC(=O)N(C)C)c(C#N)cc12 [Example 9, dimethyl carbamic acid 2-oxo-2H-3-benzyl-4-methyl-6-cyano-1-benzopyran-7-yl ester]	0.85
Cc1c(Cc2ccccc2)c(=O)oc2cc(Cn3ccnc3N)ccc12 [Example 25, 2-oxo-3-benzyl-4-methyl-7-(2-aminoimidazol-1-yl-methyl)-1H-benzopyrane]	11.8

Same assay, conditions: human PBMC pretreated with drug 60 min, stimulated with LPS (E. coli O55:B5) 100 ng/mL, overnight culture, TNFα in supernatant by ELISA; listed as 14-4; read-out: 50% Inhibition of TNFα level (IC50)

SMILES	IC50 [µM]
Cc1c(Cc2ccccc2)c(=O)oc2cc(OC(=O)N(C)C)cc(F)c12 [Example 10, dimethyl carbamic acid 2-oxo-2H-3-benzyl-4-methyl-5-fluoro-1-benzopyran-7-yl ester]	0.44

Same assay, conditions: human PBMC pretreated with drug 60 min, stimulated with LPS (E. coli O55:B5) 100 ng/mL, overnight culture, TNFα in supernatant by ELISA; listed as 14-25; read-out: 50% Inhibition of TNFα level (IC50)

SMILES	IC50 [µM]
CC(=O)Nc1cccc(Cc2c(C)c3cc(Cl)c(OC(=O)N(C)C)cc3oc2=O)c1 [Example 12, dimethyl carbamic acid 2-oxo-2H-3-(m-acetylamidobenzyl)-4-methyl-6-chloro1-benzopyran-7-yl ester]	0.31

Same assay, conditions: human PBMC pretreated with drug 60 min, stimulated with LPS (E. coli O55:B5) 100 ng/mL, overnight culture, TNFα in supernatant by ELISA; read-out: 50% Inhibition of TNFα level (IC50)

SMILES	IC50 [µM]
CCc1c(Cc2ccncc2)c(=O)oc2cc(OC(=O)N(C)C)c(Cl)cc12 [Example 14-81]	0.34
Cc1c(Cc2cccnc2)c(=O)oc2c(C)c(OC(=O)N(C)C)ccc12 [Example 14-33]	8.4
Cc1c(Cc2cccnc2)c(=O)oc2cc(OC(=O)N(C)C)c(Cl)cc12 [Example 14-35]	0.45
Cc1c(Cc2cccc(N(C)C)c2)c(=O)oc2cc(OC(=O)N(C)C)ccc12 [Example 14-72]	1.9
Cc1c(Cc2ccccc2)c(=O)oc2cc(OC(=O)N(C)C)c(I)cc12 [Example 14-12]	0.06
Cc1c(Cc2ccccc2N)c(=O)oc2cc(OC(=O)N(C)C)c(Cl)cc12 [Example 14-20]	0.49
Cc1c(Cc2ccccc2)c(=O)oc2cc(Oc3nccs3)ccc12 [Example 21, 2-oxo-3-benzyl-4-methyl-7-(thiazol-2-yloxyl)-2H-1-benzopyrane]	10.5
CCc1c(Cc2ccncc2)c(=O)oc2cc(OC(=O)N(C)C)ccc12 [Example 14-80]	2.4
CCc1c(Cc2ccccc2)c(=O)oc2cc(OC(=O)N(C)C)c(Cl)cc12 [Example 14-74]	0.24
Cc1c(Cc2ccccn2)c(=O)oc2cc(OC(=O)N(C)C)ccc12 [Example 14-30]	6.47
CCOC(=O)CC(=O)Nc1cccc(Cc2c(C)c3c(F)cc(OC(=O)N(C)C)cc3oc2=O)c1 [Example 14-8]	0.14
Cc1c(Cc2ccccc2)c(=O)oc2cc(OC(=O)N(C)C)c([N+](=O)[O-])cc12 [Example 14-17]	0.12
Cc1c(Cc2ccccc2)c(=O)oc2cc(OC(=O)N(C)C)c(Br)cc12 [Example 14-15]	0.06
COc1ccccc1Cc1c(C)c2ccc(OC(=O)N(C)C)cc2oc1=O [Example 14-44]	7.5
Cc1c(Cc2ccc(C(C)C)cc2)c(=O)oc2cc(OC(=O)N(C)C)ccc12 [Example 14-52]	11.6
COc1cccc(Cc2c(C)c3ccc(OC(=O)N(C)C)cc3oc2=O)c1 [Example 14-45]	3.2
CCCc1c(Cc2ccccc2)c(=O)oc2cc(OC(=O)N(C)C)c(Cl)cc12 [Example 14-83]	0.78
Cc1c(Cc2ccccc2)c(=O)oc2cc(Cn3ccnc3N)ccc12 [Example 25, 2-oxo-3-benzyl-4-methyl-7-(2-aminoimidazol-1-yl-methyl)-1H-benzopyrane]	13.7
CCc1c(Cc2ccccc2)c(=O)oc2cc(OC(=O)N(C)C)ccc12 [Example 14-73]	1.7
Cc1c(Cc2ccc(N)cc2)c(=O)oc2cc(OC(=O)N(C)C)ccc12 [Example 14-66]	5.2
Cc1c(Cc2ccc(S(C)(=O)=O)cc2)c(=O)oc2cc(OC(=O)N(C)C)ccc12 [Example 14-43]	6.6
Cc1c(Cc2ccccc2N)c(=O)oc2cc(OC(=O)N(C)C)ccc12 [Example 14-64]	2.1
CC(=O)Nc1ccc(Cc2c(C)c3ccc(OC(=O)N(C)C)cc3oc2=O)cc1 [Example 14-61]	5.8
CCc1c(Cc2cccc(N)c2)c(=O)oc2cc(OC(=O)N(C)C)ccc12 [Example 14-78]	1.3

The remaining lines, values ahead:

IC50 [µM]	SMILES
7.5	Cc1c(Cc2ccncc2)c(=O)oc2cc(Oc3ncccn3)c(Cl)cc12 [Example 20-13]
0.3	CCS(=O)(=O)Nc1cccc(Cc2c(C)c3cc(Cl)c(Oc4ncccn4)cc3oc2=O)c1 [Example 20-44]
8.8	Cc1c(Cc2ccccc2)c(=O)oc2cc(Oc3ncccn3)c(I)cc12 [Example 20-5]
7.2	Cc1ccc(S(=O)(=O)Nc2cccc(Cc3c(C)c4cc(Cl)c(Oc5ncccn5)cc4oc3=O)c2)cc1 [Example 20-45]
10.1	Cc1c(Cc2cccc([N+](=O)[O-])c2)c(=O)oc2cc(Oc3nccs3)cc(F)c12 [Example 22-3]
6.6	Cc1c(Cc2cccc([N+](=O)[O-])c2)c(=O)oc2cc(Oc3nccs3)ccc12 [Example 22-2]
2.5	CCc1c(Cc2ccccc2)c(=O)oc2cc(Oc3nccs3)ccc12 [Example 22-10]
9.8	Cc1c(Cc2cccc(NC(=O)CNC(=O)OCc3ccccc3)c2)c(=O)oc2cc(Oc3ncccn3)c(Cl)cc12 [Example 20-31]
9.5	Cc1c(Cc2ccccc2)c(=O)oc2cc(Oc3ncccn3)c(Br)cc12 [Example 20-4]
1.2	CCOC(=O)CCC(=O)Nc1cccc(Cc2c(C)c3cc(Cl)c(Oc4ncccn4)cc3oc2=O)c1 [Example 20-28]
4.2	CCc1c(Cc2cccc(N)c2)c(=O)oc2cc(Oc3nccs3)ccc12 [Example 22-7]
5.4	CC(=O)Nc1cccc(Cc2c(C)c3c(F)cc(Oc4ncccn4)cc3oc2=O)c1 [Example 20-39]
3.6	CCc1c(Cc2cccc(NC(C)=O)c2)c(=O)oc2cc(Oc3ncccn3)c(Cl)cc12 [Example 20-57]
7.8	CCc1c(Cc2cccc(N)c2)c(=O)oc2cc(Oc3ncccn3)c(Cl)cc12 [Example 20-56]
10.4	Cc1c(Cc2ccncc2)c(=O)oc2cc(Oc3ncccn3)ccc12 [Example 20-10]
8.6	Cc1c(Cc2ccccc2)c(=O)oc2cc(Cn3ccnc3N)c(Cl)cc12 [Example 26-16]
3.1	CC(=O)Nc1cccc(Cc2c(C)c3cc(Cl)c(Oc4ncccn4)cc3oc2=O)c1 [Example 20-43]
< 0.6	CCOC(=O)CC(=O)Nc1cccc(Cc2c(C)c3cc(Cl)c(Oc4ncccn4)cc3oc2=O)c1 [Example 20-29]
9	Cc1c(Cc2ccccc2)c(=O)oc2cc(C(C)(F)F)ccc12 [Example 26-11]
10.6	Cc1c(Cc2cccc(NC(=O)CC(=O)O)c2)c(=O)oc2cc(Oc3ncccn3)c(Cl)cc12 [Example 20-34]
5.1	Cc1c(Cc2cccc(N(C)C)c2)c(=O)oc2cc(Oc3ncccn3)c(Cl)cc12 [Example 20-27]
4.5	CCc1c(Cc2ccccc2)c(=O)oc2cc(Oc3ncccn3)c(Cl)cc12 [Example 20-50]

Source: patent US7994318B2, “Coumarin derivatives useful as TNFα inhibitors” (Chugai Seiyaku Kabushiki Kaisha, priority 2000, dated 2011)
